From ChEMBL document CHEMBL1152699, “Taste-guided identification of high potency TRPA1 agonists from Perilla frutescens” (Bioorg Med Chem, 2009) come the findings set out here.

The source made the active and inactive calls. The calls are words filed in the database; no cut-off is given here.

What all share (format): functional, cell-based
Assay [1] addresses Transient receptor potential cation channel subfamily A member 1 (Rattus norvegicus, UniProt Q6RI86). As to the kind of experiment: Agonist activity at rat recombinant TRPA1 receptor expressed in HEK293 cells assessed as increase in intracellular calcium concentration by fluorimetric test.
Assay [2] concerns the target Transient receptor potential cation channel subfamily A member 1 (Rattus norvegicus) (UniProt Q6RI86). As to the kind of experiment: Agonist activity at rat recombinant TRPA1 receptor expressed in HEK293 cells assessed as increase in intracellular calcium concentration by fluorimetric test in presence of TRP channel blocker ruthenium red. (In general: Calcium flux is commonly read through the fluorescence of an indicator in the cells.)

For assay [3] the target is unchanged. In words: Antagonist activity at rat recombinant TRPA1 receptor expressed in HEK293 cells assessed as inhibition of allylisothiocyanate-induced increase in intracellular calcium concentration preincubated for 5 mins by fluorimetric test.
Assay [4] has the same target. As to the kind of experiment: Agonist activity at rat recombinant TRPA1 receptor expressed in HEK293 cells assessed as increase in intracellular calcium concentration by fluorimetric test relative to 100 uM allylisothiocyanate.
In assay [5] the target is Transient receptor potential cation channel subfamily M member 8 (Rattus norvegicus) (UniProt Q8R455). In words: Antagonist activity at rat recombinant TRPM8 receptor expressed in HEK293 cells assessed as inhibition of icilin-induced increase in intracellular calcium concentration at 200 uM preincubated for 5 mins before icilin treatment by fluorimetric test.
Sequence of Transient receptor potential cation channel subfamily M member 8 (Rattus norvegicus) (Q8R455 whole entry, looked up): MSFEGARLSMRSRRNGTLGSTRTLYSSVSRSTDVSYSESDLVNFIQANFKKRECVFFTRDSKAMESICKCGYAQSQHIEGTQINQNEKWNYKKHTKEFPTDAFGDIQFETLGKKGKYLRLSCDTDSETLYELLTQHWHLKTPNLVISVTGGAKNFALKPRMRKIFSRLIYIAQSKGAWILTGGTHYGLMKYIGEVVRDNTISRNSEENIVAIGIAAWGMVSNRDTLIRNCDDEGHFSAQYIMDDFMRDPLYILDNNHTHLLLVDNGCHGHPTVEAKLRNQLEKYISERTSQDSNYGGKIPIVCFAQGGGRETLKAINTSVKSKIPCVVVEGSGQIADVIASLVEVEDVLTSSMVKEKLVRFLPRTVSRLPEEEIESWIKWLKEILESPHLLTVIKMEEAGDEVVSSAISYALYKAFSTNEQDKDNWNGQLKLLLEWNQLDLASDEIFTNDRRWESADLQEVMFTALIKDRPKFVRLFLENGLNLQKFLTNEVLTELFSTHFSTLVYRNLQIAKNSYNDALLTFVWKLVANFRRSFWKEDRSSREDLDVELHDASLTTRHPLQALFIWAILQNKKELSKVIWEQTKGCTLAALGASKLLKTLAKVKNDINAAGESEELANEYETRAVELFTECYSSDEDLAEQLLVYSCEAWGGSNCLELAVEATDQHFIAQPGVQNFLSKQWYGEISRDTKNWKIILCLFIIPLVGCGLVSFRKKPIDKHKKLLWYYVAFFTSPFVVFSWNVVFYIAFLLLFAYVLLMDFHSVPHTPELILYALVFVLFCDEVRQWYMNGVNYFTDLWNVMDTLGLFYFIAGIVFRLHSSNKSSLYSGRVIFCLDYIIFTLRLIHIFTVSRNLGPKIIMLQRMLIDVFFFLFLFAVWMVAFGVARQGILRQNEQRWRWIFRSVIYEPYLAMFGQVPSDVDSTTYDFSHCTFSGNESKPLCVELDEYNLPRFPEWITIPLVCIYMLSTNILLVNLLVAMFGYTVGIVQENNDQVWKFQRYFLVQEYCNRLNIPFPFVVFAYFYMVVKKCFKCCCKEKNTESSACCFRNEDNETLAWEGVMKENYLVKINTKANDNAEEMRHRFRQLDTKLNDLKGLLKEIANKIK
The target is the same in assay [6]. As to the kind of experiment: Antagonist activity at rat recombinant TRPM8 receptor expressed in HEK293 cells assessed as inhibition of icilin-induced increase in intracellular calcium concentration at 200 uM preincubated […] before icilin treatment by fluorimetric test.
Assay [7] has the same target. As to the kind of experiment: (§1) Agonist activity at rat recombinant TRPM8 receptor expressed in HEK293 cells assessed as increase in intracellular calcium concentration by fluorimetric test.
Assay [8] deals with Transient receptor potential cation channel subfamily M member 8 (Rattus norvegicus, UniProt Q8R455). The description is as §1.
Sequence of Transient receptor potential cation channel subfamily M member 8 (Q8R455 whole entry): as the sequence (Q8R455 whole entry, looked up) above

Sequence of Transient receptor potential cation channel subfamily A member 1 (Q6RI86 whole entry): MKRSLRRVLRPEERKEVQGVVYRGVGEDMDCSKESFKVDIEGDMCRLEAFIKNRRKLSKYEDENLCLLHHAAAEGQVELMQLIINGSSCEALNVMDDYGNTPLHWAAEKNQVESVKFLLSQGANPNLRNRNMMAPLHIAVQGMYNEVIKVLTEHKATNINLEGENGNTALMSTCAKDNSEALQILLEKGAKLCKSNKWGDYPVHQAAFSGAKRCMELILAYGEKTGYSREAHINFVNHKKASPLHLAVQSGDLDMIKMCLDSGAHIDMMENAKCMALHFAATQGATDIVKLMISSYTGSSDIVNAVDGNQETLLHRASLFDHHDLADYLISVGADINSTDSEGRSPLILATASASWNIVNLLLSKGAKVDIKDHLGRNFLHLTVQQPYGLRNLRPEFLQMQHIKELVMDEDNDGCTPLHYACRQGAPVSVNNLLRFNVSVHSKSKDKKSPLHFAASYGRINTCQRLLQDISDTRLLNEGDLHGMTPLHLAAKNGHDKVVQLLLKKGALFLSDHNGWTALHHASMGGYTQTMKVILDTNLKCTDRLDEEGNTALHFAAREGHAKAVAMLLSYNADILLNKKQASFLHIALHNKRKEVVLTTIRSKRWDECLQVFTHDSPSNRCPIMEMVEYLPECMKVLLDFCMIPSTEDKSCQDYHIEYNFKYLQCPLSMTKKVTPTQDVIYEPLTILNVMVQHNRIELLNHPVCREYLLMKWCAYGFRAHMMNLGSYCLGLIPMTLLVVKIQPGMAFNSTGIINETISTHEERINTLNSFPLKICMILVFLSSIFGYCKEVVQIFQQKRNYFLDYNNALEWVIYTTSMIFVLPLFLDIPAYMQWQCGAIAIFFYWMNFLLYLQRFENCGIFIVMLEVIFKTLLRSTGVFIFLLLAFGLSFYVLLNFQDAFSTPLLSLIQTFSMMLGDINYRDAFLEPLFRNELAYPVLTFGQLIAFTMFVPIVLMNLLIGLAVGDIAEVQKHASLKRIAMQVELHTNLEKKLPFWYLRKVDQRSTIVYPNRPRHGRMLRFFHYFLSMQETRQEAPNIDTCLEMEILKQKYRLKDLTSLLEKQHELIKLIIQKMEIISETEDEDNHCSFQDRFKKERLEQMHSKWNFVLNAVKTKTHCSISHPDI
Sequence of Transient receptor potential cation channel subfamily A member 1 (Rattus norvegicus) (Q6RI86 whole entry): as above

Turning to `CC(C)CCC(=O)c1ccoc1` [PERILLAKETONE], the EC50 in assay [1] (read-out: EC50) is 19.7 µM; in assay [1] (read-out: pEC50 (converted)) it was 40.7 µM. In addition, the result in assay [2] was inactive. Further, the outcome in assay [3] and in assay [6] was Active. Besides, the Efficacy in assay [4] amounted to 181%. The inhibition (in general, the relative decrease from the control value, in per cent) in assay [5] is 39.3%.
With `O=C1NC(c2cccc([N+](=O)[O-])c2)=CCN1c1ccccc1O` [ICILLIN], in assay [7], the Activity entry is “Dose-dependent effect”. In addition, the EC50 in assay [8] was found to be 0.19 µM.
Take `C=C(C)C1CC=C(C=O)CC1` (stereo not given) [PERILLALDEHYDE]: the values for the EC50 in assay [1] (read-out: EC50) and in assay [1] (read-out: pEC50 (converted)) were 41 µM and 19.5 µM, respectively. The outcome in assay [2] was inactive. In assay [4], the Efficacy is 74.6%. The inhibition in assay [5] is 64.3%. For the same compound, the result in assay [6] was Active.
